Assay type in all cases: cell-based
One assay has as its system Escherichia coli 455/7. Kind of assay: MIC, agar serial dilution, Escherichia coli 455/7. The note with it: Iso-Sensitest agar, 37° C., about 20 hours. On the procedure: (§1) The minimum inhibitory concentrations (MIC) were determined by means of serial dilution methods on Iso-Sensitest agar (Oxoid). For each substance to be tested, a series of agar plates was prepared which contained concentrations of the active compound which in each case decreased by a doubling dilution. The agar plates were inoculated with a Multipoint inoculator (Denley). For the inoculation, overnight cultures of the pathogens were used which had previously been diluted so that each inoculation spot contained about 10^4 colony-forming particles. The inoculated agar plates were incubated at 37° C. and the organism growth was recorded after about 20 hours. The MIC value (μg/ml) indicates the lowest concentration of active compound at which no growth was detected with the naked eye.
(§2) In the table below, the MIC values of some of the compounds according to the invention are listed in comparison with 1-cyclopropyl-6,8-difluoro-1,4-dihydro-7-(cis-2-oxa-5,8-diazabicyclo[4.3.0]non-8-yl)-4-oxo-3-quinoline-carboxylic acid hydrochloride (reference example A) and 8-chloro-1-cyclopropyl-6-fluoro-1,4-dihydro-7-(cis-2-oxa-5,8-diazabicyclo[4.3.0]non-8-yl)-4-oxo-3-quinoline-carboxylic acid hydrochloride (reference example B).

For assay [1], the system named is Klebsiella pneumoniae 8085. Kind of assay: MIC, agar serial dilution, Klebsiella pneumoniae 8085. The note with it: Iso-Sensitest agar, 37° C., about 20 hours. As to the method: as §1, §2
In assay [2] the test system is Enterobacter cloacae 2427. Kind of assay: MIC, agar serial dilution, Enterobacter cloacae 2427. The note with it: Iso-Sensitest agar, 37° C., about 20 hours. On the procedure:
as §1, §2

The subject of assay [3] is Enterobacter aerog. ICB 5240. The experiment in a line: MIC, agar serial dilution, Enterobacter aerog. ICB 5240. The note with it: Iso-Sensitest agar, 37° C., about 20 hours. On the procedure: as §1, §2
Another assay relates to Morganella morganii 932. Kind of assay: MIC, agar serial dilution, Morganella morganii 932. The note with it: Iso-Sensitest agar, 37° C., about 20 hours. On the procedure:
as §1, §2

A further assay deals with Providencia sp. 12012. The experiment in a line: MIC, agar serial dilution, Providencia sp. 12012. The note with it: Iso-Sensitest agar, 37° C., about 20 hours. As to the method: as §1, §2
Another assay has as its system Micrococcus luteus 9341. The experiment in a line: MIC, agar serial dilution, Micrococcus luteus 9341. The following applies: Iso-Sensitest agar, 37° C., about 20 hours. As to the method: as §1, §2
In assay [4] the test system is Staphylococcus aureus ICB 25701. The experiment in a line: MIC, agar serial dilution, Staphylococcus aureus ICB 25701. The following applies: ICB25701, Iso-Sensitest agar, 37° C., about 20 hours. On the procedure:
as §1, §2

Assay [5] has as its system Staphylococcus aureus 1756. The experiment in a line: MIC, agar serial dilution, Staphylococcus aureus 1756. The note with it: Iso-Sensitest agar, 37° C., about 20 hours. As to the method: as §1, §2
The subject of assay [6] is Staphylococcus aureus 133. Kind of assay: MIC, agar serial dilution, Staphylococcus aureus 133. The note with it: Iso-Sensitest agar, 37° C., about 20 hours. On the procedure: as §1, §2
The test system of assay [7] is Enterococcus faecalis 27101. The experiment in a line: MIC, agar serial dilution, Enterococcus faecalis 27101. The following applies: Iso-Sensitest agar, 37° C., about 20 hours. On the procedure:
as §1, §2

In assay [8] the test system is Enterococcus faecalis 9790. The experiment in a line: MIC, agar serial dilution, Enterococcus faecalis 9790. The following applies: Iso-Sensitest agar, 37° C., about 20 hours. As to the method: as §1, §2
In assay [9] the test system is Pseudomonas aeruginosa ICB 308029. Kind of assay: MIC, agar serial dilution, Pseudomonas aeruginosa ICB 308029. The following applies: ICB308029, Iso-Sensitest agar, 37° C., about 20 hours. As to the method:
as §1, §2

What is called MIC is the lowest concentration that inhibits growth of the organism. A low value points to greater potency.

For `Cl.O=C(O)c1cn(C2CC2)c2c(F)c(N3C[C@@H]4NCCO[C@@H]4C3)c(F)cc2c1=O` (relative stereo) [A, 1-cyclopropyl-6,8-difluoro-1,4-dihydro-7-(cis-2-oxa-5,8-diazabicyclo[4.3.0]non-8-yl)-4-oxo-3-quinoline-carboxylic acid hydrochloride], the MIC in the assay on Escherichia coli 455/7 worked out at 4 µg/mL; in assay [1] it was 0.06 µg/mL; in assay [2], 0.125 µg/mL; in assay [3] it was 32 µg/mL; in the assay on Morganella morganii 932, 0.125 µg/mL; in the assay on Providencia sp. 12012 it was 0.125 µg/mL. In addition, the MIC against Micrococcus luteus 9341 turned out to be 0.5 µg/mL; in assay [4], 2 µg/mL; in assay [5], 0.06 µg/mL; in assay [6], 0.06 µg/mL; in [7], 0.25 µg/mL; in assay [8], 0.25 µg/mL. Moreover, the minimal inhibitory concentration (MIC) in assay [9] came to 64 µg/mL.

Regarding `Cl.O=C(O)c1cn(C2CC2)c2c(Cl)c(N3C[C@@H]4NCCO[C@@H]4C3)c(F)cc2c1=O` (relative stereo) [B, 8-chloro-1-cyclopropyl-6-fluoro-1,4-dihydro-7-(cis-2-oxa-5,8-diazabicyclo[4.3.0]non-8-yl)-4-oxo-3-quinoline-carboxylic acid hydrochloride], the MIC with Escherichia coli 455/7 is 2 µg/mL; in [1], 0.06 µg/mL; in [2] it was 0.25 µg/mL; in assay [3], 16 µg/mL; against Morganella morganii 932 it was 0.06 µg/mL; in the assay with Providencia sp. 12012, 0.06 µg/mL. The MIC was found to be 0.25 µg/mL against Micrococcus luteus 9341; 0.5 µg/mL in assay [4]; 0.015 µg/mL in [5]; 0.03 µg/mL in assay [6]; 0.125 µg/mL in assay [7]; 0.125 µg/mL in assay [8]. This molecule showed an MIC in assay [9] of 64 µg/mL.

In the case of `Cl.NCC12CN(c3c(F)cc4c(=O)c(C(=O)O)cn(C5CC5)c4c3F)CC1CCO2` (stereo not shown) [Example 1B, 7-(1-aminomethyl-2-oxa-7-aza-bicyclo[3.3.0]oct-7-yl) -1-cyclopropyl-6,8-difluoro-1,4-dihydro-4-oxo-3-quinolinecarboxylic acid hydrochloride], the MIC came to 2 µg/mL with Escherichia coli 455/7; 0.06 µg/mL in assay [1]; 0.06 µg/mL in assay [2]; 8 µg/mL in assay [3]; 0.03 µg/mL in the assay on Morganella morganii 932; 0.06 µg/mL against Providencia sp. 12012. Also, the MIC is 0.25 µg/mL with Micrococcus luteus 9341; 1 µg/mL in [4]; at most 0.015 µg/mL in [5]; 0.06 µg/mL in assay [6]; 0.06 µg/mL in assay [7]; 0.125 µg/mL in assay [8]. 16 µg/mL was the least that counted as inhibitory in assay [9] (MIC).

With `NCC12CN(c3c(F)cc4c(=O)c(C(=O)O)cn(C5CC5)c4c3Cl)CC1CCO2.O=C(O)C(F)(F)F` (stereo not shown) [Example 2B, 7-(1-aminomethyl-2-oxa-7-aza-bicyclo[3.3.0]oct-7-yl)-8-chloro-1-cyclopropyl-6-fluoro-1,4-dihydro-4-oxo-3-quinolinecarboxylic acid trifluoroacetate], the MIC was found to be 1 µg/mL with Escherichia coli 455/7; 0.03 µg/mL in assay [1]; 0.06 µg/mL in [2]; 8 µg/mL in assay [3]; 0.03 µg/mL with Morganella morganii 932; 0.03 µg/mL with Providencia sp. 12012. The MIC in the assay with Micrococcus luteus 9341 stood at 0.125 µg/mL; in assay [4], 0.25 µg/mL; in assay [5], 0.0039 µg/mL; in assay [6] it was 0.015 µg/mL; in [7], 0.03 µg/mL; in assay [8], 0.06 µg/mL. The same molecule showed an MIC in [9] of 32 µg/mL.
